Counter-ions that a name gives are not always drawn. Like-named read-outs stand apart in the source and are kept apart here.
How the values were obtained:
[1] = tested on: primary neurons; experiment: TMRM fluorescence assay of inner mitochondrial membrane potential (ΔΨm); settings: for Emax: read-out: TMRM (Effect-size)
Experimental: Mitochondrial dyes. To assay the electrochemical potential across the inner mitochondrial membrane of cultured cells, we used the cell-permeant dye tetramethylrhodamine methyl ester (TMRM). For co-localization studies with Mt-GFP, TMRM was used at 20 nM on DIV14 and incubated for 30 min prior to imaging. For the orthogonal screen of compounds, TMRM was added to primary neurons on DIV13 at 10 nM, one hr prior to pintooling selected compounds, and incubated for 24 hr. Cells were washed 2× with pre-warmed fresh feeding media without B27 before measurements with a plate reader.
(§1) A CLARIOstar (BMG LABTECH) microplate reader was used to measure fluorescence of TMRM and luminescence produced from the ATP.
(§2) Mitochondrial membrane potential (Δψm) and luminescence-based ATP assays. […] Changes of ΔΨm in each well were monitored using the mitochondrial-specific, fluorescent dye TMRM (tetramethyl rhodamine, methyl ester; Molecular Probes) and measured using a CLARIOstar plate reader. […] This concentration was used throughout our experiments. […] Wells in columns 1 and 24 were not loaded with TMRM; these served to measure background signal which was subtracted from the wells to which TMRM was added. To measure the total ATP levels in neurons we utilized the CellTiter-Glo® luminescence-based ATP assay (Promega). DIV13 primary neurons were cultured for 24 h with either DMSO carrier or compound treatment, followed by removing 55 μl culture medium from each well. Plates were maintained at room temperature for 25 m, and 25 μl of CellTiter-Glo® Reagent with the substrate luciferin was then added to each well (Promega). Plates were covered with aluminum foil and shaken vigorously on an orbital shaker for 10 m at 200 rpm and maintained at room temperature for an additional 2 m in dark before being read with the plate reader set to the luminescence mode.
Compound library and hit picking rules. We screened 2400 compounds from the MicroSource Spectrum library. […] FIGS. 13A-13E provide details of the assays used from which hit picking rules were made. In essence, the average fluorescence for each compound in the TMRM assay was determined and compared to the average fluorescence for compounds in the population on each assay plate to produce a Z-score. The Z-scores for each individual compound assayed across the four replicate plates was then averaged.

[2] = tested on: primary neurons; experiment: CellTiter-Glo luminescence-based ATP assay; type: cell-based, mouse; settings: for ATP: ATP orthogonal screen, 24 h; for Emax: maximal percent increase relative to in-plate DMSO controls, read-out: ATP (Effect-size)
Experimental: Measurement of ATP production. The total amount of ATP produced by cultured primary neurons was measured by CellTiter-Glo Luminescent Cell Viability Assay (Promega). A recombinant luciferase enzyme catalyzed the mono-oxygenation of luciferin while hydrolyzing ATP produced by the cells and emitting light. We followed the manufacturer's protocol with primary neurons on DIV14.
as §1, §2
Compound library and hit picking rules. We screened 2400 compounds from the MicroSource Spectrum library. […] FIGS. 13A-13E provide details of the assays used from which hit picking rules were made. In essence, the average fluorescence for each compound in the TMRM assay was determined and compared to the average fluorescence for compounds in the population on each assay plate to produce a Z-score. The Z-scores for each individual compound assayed across the four replicate plates was then averaged. Because of significant well location effects (outer rows) on each assay plate (FIG. 13G), we selected primary hits as enhancing well fluorescence above the μplate by 3σplate for inner row wells (rows C-N, columns 3-22), and by 2.5σplate for outer row wells (rows A, B, O, P; columns 3-22) (FIG. 14C-D). […] All orthogonal assays employed inner wells of the 384-well plates.

[3] = Mus musculus, Primary neuron, dose response

SMILES	TMRM Primary ([1]; primary screen, 12.5 μM, 24 h) [Z-scores]	TMRM Rescreen ([1]; rescreen, 24 h) [Z-scores]	ATP [2] [Z-scores]	other results
CC(C)NCC(O)COc1cccc2ccccc12.Cl (racemic) [propranolol hydrochloride (+/−)]	4.03	3.07	5.06	–
CC1(C)[C@H](O)CC(=O)[C@]2(C)[C@H]3CC[C@@]4(C)[C@H](c5ccoc5)OC(=O)[C@H]5O[C@]54[C@]3(C)C(=O)C[C@@H]12 [1,7-dideacetoxy-1,7-dioxo-3-deacetylkhivorin]	3.65	4.00	5.46	–
COc1cc2oc3cc(OC)c(OC)c(CC=C(C)C)c3c(=O)c2c(O)c1CC=C(C)C [1-hydroxy-3,6,7-trimethoxy-2,8-diprenylxanthone]	3.34	3.27	5.44	–
COc1ccc(C(=O)/C=C/c2ccccc2)cc1 [4′-methoxychalcone]	3.42	1.48	3.97	–
COc1ccc(-c2coc3cc(O)cc(OC)c3c2=O)cc1 [5,4′-dimethoxy-7-hydroxyisoflavone]	5.24	6.90	5.76	–
CC(C)CCC[C@@H](C)[C@H]1CC[C@H]2[C@@H]3CC(=O)[C@H]4C[C@@H](O)CC[C@]4(C)[C@H]3CC[C@]12C [5alpha-cholestan-3beta-ol-6-one]	7.10	7.61	5.86	–
O=c1[nH]c2ccccc2n1CCCN1CCC(n2c(=O)[nH]c3cc(Cl)ccc32)CC1 [DOMPERIDONE]	3.33	5.58	5.20	Emax ([1]; Mus musculus, Primary neuron): 28.3%; Emax [2, 3]: 13%
CC(C)(C)OO [Peroxide, tert-butyl hydroperoxide]	–	–	–	reduction of whole well TMRM fluorescence ([1]; 50 μM, 24 h, DIV14 neuronal cultures): ~40%
CCN(CC)CCOC(=O)C(c1ccccc1)c1ccccc1 [adiphenine hydrochloride]	3.05	3.21	4.95	–
CC[C@H]1[C@@H]2C[C@H]3[C@@H]4N(C)c5ccccc5[C@]45C[C@@H]([C@H]2[C@H]5O)N3[C@@H]1O [ajmaline]	3.76	6.40	4.76	–
Nc1c(Br)cc(Br)cc1CN[C@H]1CC[C@H](O)CC1 [ambroxol hydrochloride]	4.00	5.14	5.04	–
CN(C)CCC=C1c2ccccc2CCc2ccccc21 [amitriptyline hydrochloride]	4.78	1.81	4.82	–
N=c1ccn2c(n1)O[C@H]1[C@H](O)[C@@H](CO)O[C@H]12 [ancitabine hydrochloride]	3.04	1.36	0.14	–
C[C@]12CC[C@@H](O)C[C@@H]1CC[C@@H]1[C@@H]2CC[C@]2(C)C(=O)CC[C@@H]12 [androsterone]	–	–	5.63	TMRM Primary [1]: 3.77 Z-scores; TMRM Rescreen [1]: 4.76 Z-scores
O=C1CCc2ccc(OCCCCN3CCN(c4cccc(Cl)c4Cl)CC3)cc2N1 [aripiprazole]	2.98	7.76	3.66	–
COc1ccc(CN=c2[nH]c(N3CCC[C@H]3CO)ncc2C(=O)NCc2ncccn2)cc1Cl [avanafil]	3.13	3.42	1.30	–
CN1CCCC(n2nc(Cc3ccc(Cl)cc3)c3ccccc3c2=O)CC1 (centres unmarked) [azelastine hydrochloride]	7.06	6.13	5.30	–

SMILES	TMRM Primary ([1]; primary screen, 12.5 μM, 24 h) [Z-scores]	TMRM Rescreen ([1]; rescreen, 24 h) [Z-scores]	ATP [2] [Z-scores]	other results
CCOC(=O)[C@H](CCc1ccccc1)N[C@H]1CCc2ccccc2N(CC(=O)O)C1=O [benazepril hydrochloride]	3.43	2.43	5.26	–
CCCCNc1ccc(C(=O)OCCOCCOCCOCCOCCOCCOCCOCCOCCOC)cc1 [benzonatate]	2.78	8.21	4.35	–
c1ccc(-c2ccc(C(c3ccccc3)n3ccnc3)cc2)cc1 (centres unmarked) [bifonazole]	3.81	1.84	4.00	–
CC(C)(c1ccc(O)cc1)c1ccc(O)cc1 [bisphenol a]	3.35	7.40	4.73	hit in TMRM primary screen when assayed at 4 h ([1]; 12.5 μM, 4 h): bisphenol a*
CCCCN1CCCCC1C(=O)Nc1c(C)cccc1C (centres unmarked) [bupivacaine hydrochloride]	5.35	5.25	4.80	–
COC(=O)C[C@H]1C2(C)CC34OC5(C)O[C@@]6([C@H](OC(C)=O)C(OC(C)=O)[C@]7(C)C(/C(=C(/O)C(C)C)C(=O)O[C@H]7c7ccoc7)[C@@]6(O5)[C@H](OC(C)=O)[C@@]3(O)C2OC(=O)C(C)C)[C@]14C (some centres unmarked) [bussein]	3.44	3.92	5.58	–
CCCCOC(=O)c1ccc(O)cc1 [butyl paraben]	3.42	4.18	3.84	–
COC(=O)C[C@H]1C(C)(C)C(=O)[C@@H]2CC3=C(CC[C@]4(C)C3=CC(=O)O[C@H]4c3ccoc3)[C@@]1(C)C2=O [carapin-8(9)-ene]	3.50	3.82	4.89	–
CN(C)CCN(Cc1ccc(Cl)cc1)c1ccccn1 [chloropyramine hydrochloride]	3.35	5.24	3.26	–
CN(C)CCCN1c2ccccc2Sc2ccc(Cl)cc21 [chlorpromazine]	2.79	2.66	5.00	–
CN(C)CC/C=C1/c2ccccc2Sc2ccc(Cl)cc21 [chlorprothixene hydrochloride]	6.17	5.04	3.17	–
CN1CCC[C@@H]1CCO[C@](C)(c1ccccc1)c1ccc(Cl)cc1 [clemastine fumarate]	2.82	3.22	–	–
C[N+]12CCC(CC1)C(OC(=O)C(O)(c1ccccc1)c1ccccc1)C2 (centres unmarked) [clidinium bromide]	2.49	4.11	6.21	Emax ([1]; Mus musculus, Primary neuron): 14.3%; EC50 ([1]; Mus musculus, Primary neuron, read-out: TMRM-EC50): 450 nM; EC50 ([2]; Mus musculus, Primary neuron, dose response, 15 concentrations from 6 nM to 100 uM): 420 nM; Emax [2, 3]: 20.5%
CCN(CC)CCOc1ccc(C(=C(Cl)c2ccccc2)c2ccccc2)cc1 [clomiphene citrate]	2.94	3.45	4.20	–
CN1CCN(C2=Nc3cc(Cl)ccc3Nc3ccccc32)CC1 [clozapine]	3.24	5.80	3.88	–
CN(C)CCC=C1c2ccccc2C=Cc2ccccc21 [cyclobenzaprine hydrochloride]	5.52	4.71	3.49	–
CNCCC(Oc1ccc(C(F)(F)F)cc1)c1ccccc1 (centres unmarked) [fluoxetine hydrochloride]	–	–	3.70	–
